In publication PMC9115913 (Biological chemistry, 2022):
In brackets after ≈: the same amount, converted by molar mass. Several values for one entry are separate records, joined by “and”; a condition that tells them apart may be missing. Equal values may be shown once. Read-outs that look alike come from different tables or passages of the source.

How the values were obtained:
[1] = molecular target: PBP1a (Streptococcus pneumoniae, UniProt Q8DR59); test: cell-based; assay type: binding; conditions: IC50 PBPla
PBP1a, sequence (Q8DR59 whole entry): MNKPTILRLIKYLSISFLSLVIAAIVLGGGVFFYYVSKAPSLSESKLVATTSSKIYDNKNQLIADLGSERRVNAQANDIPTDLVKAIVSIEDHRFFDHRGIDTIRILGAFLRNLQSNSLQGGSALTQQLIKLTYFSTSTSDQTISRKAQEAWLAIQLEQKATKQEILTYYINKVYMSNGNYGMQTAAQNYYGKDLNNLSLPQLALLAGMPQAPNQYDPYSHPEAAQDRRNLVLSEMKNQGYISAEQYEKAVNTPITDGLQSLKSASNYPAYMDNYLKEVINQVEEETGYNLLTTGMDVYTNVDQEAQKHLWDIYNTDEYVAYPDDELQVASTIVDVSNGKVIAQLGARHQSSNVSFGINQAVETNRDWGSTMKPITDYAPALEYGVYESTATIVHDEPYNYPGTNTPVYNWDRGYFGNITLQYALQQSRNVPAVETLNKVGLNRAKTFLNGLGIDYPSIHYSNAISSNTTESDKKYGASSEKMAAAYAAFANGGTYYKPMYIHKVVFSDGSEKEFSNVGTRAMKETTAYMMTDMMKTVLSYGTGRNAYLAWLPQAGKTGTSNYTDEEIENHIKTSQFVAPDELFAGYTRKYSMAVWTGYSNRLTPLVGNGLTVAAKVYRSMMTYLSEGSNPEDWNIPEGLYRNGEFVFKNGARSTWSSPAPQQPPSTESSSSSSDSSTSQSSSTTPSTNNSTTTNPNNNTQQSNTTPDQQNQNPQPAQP

[2] = molecular target: PBP2a (Streptococcus pneumoniae, UniProt Q8DNB6); test: cell-based; assay type: binding
PBP2a, sequence (Q8DNB6 whole entry): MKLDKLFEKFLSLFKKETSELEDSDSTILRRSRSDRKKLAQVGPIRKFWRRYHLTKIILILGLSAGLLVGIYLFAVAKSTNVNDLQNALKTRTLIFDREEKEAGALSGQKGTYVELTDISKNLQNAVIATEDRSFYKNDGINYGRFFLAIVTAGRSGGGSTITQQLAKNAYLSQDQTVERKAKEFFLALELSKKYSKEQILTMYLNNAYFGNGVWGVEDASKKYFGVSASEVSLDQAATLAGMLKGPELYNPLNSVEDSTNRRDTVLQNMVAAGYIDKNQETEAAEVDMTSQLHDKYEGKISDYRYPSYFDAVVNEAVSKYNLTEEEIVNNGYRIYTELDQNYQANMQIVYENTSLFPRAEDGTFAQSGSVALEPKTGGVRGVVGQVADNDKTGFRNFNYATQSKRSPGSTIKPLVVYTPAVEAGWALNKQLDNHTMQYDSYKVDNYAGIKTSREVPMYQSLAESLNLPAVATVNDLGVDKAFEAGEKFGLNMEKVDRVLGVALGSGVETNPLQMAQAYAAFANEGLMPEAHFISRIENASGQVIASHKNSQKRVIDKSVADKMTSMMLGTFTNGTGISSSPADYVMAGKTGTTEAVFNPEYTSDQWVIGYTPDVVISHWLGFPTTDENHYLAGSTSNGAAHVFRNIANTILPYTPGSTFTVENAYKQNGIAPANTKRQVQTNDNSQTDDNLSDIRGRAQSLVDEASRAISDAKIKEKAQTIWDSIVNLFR

[3] = molecular target: PBP2b (Streptococcus pneumoniae, UniProt P0A3M6); test: cell-based; assay type: binding
PBP2b, sequence (P0A3M6 whole entry): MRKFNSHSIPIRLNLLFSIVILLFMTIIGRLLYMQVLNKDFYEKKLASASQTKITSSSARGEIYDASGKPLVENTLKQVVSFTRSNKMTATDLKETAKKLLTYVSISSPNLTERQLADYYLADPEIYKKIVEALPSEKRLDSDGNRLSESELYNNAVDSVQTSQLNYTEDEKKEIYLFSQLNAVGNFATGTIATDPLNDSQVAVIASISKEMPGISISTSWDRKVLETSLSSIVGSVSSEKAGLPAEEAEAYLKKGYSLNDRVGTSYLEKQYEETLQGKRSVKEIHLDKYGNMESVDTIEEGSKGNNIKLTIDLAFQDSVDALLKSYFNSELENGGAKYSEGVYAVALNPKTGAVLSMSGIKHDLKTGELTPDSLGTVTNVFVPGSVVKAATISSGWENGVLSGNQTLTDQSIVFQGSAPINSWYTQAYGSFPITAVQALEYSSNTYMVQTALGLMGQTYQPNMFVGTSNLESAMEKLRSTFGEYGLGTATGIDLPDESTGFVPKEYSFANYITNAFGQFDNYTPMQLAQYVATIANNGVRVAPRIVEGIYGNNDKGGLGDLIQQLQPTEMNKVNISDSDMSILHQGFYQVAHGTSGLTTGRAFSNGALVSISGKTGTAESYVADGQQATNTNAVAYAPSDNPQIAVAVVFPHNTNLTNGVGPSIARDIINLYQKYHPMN

[4] = molecular target: PBP1b (Streptococcus pneumoniae, UniProt Q7CRA4); assay type: binding; conditions: read-out: IC50 PBP1b
[5] = molecular target: T1, PBP3 (Streptococcus pneumoniae, UniProt Q8DQ99); conditions: read-out: IC50 PBP3
T1 sequence (Q8DQ99 23-413): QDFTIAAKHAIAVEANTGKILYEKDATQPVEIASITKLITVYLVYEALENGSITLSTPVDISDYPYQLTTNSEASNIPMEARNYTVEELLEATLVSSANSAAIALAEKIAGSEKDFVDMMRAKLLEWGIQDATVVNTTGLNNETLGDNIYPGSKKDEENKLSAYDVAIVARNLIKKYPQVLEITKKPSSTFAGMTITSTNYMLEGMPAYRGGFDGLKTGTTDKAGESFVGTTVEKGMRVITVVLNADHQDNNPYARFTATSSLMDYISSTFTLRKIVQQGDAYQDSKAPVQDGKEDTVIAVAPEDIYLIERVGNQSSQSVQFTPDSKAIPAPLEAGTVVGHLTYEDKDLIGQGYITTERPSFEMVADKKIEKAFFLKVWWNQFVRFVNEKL

[6] = tested on: S. pneumoniae IU1945; test: Antimicrobial susceptibility assay; assay type: cell-based; conditions: Streptococcus pneumoniae
[7] = molecular target: PBP2x (Streptococcus pneumoniae, UniProt P59676); test: cell-based; assay type: binding
PBP2x, sequence (P59676 whole entry): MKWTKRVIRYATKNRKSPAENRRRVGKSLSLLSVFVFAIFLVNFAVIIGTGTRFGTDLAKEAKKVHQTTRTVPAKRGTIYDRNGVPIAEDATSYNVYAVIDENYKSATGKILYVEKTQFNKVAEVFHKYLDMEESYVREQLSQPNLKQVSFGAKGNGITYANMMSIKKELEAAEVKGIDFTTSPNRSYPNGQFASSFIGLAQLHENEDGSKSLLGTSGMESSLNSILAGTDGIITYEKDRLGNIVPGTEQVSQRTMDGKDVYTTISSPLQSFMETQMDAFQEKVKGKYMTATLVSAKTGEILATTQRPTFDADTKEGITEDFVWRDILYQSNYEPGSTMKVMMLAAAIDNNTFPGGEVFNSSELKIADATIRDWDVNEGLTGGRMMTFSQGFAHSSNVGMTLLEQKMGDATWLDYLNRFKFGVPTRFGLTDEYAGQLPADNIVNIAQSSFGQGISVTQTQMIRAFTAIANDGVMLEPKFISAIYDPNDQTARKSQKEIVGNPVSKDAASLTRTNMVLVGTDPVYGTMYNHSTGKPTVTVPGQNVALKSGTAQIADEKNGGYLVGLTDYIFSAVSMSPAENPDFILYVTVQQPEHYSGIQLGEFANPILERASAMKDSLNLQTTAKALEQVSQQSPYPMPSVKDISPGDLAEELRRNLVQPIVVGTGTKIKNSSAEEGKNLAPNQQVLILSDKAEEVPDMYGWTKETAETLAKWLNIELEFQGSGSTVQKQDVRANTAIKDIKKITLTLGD

[8] = tested on: penicillin-binding proteins (PBPs); conditions: S. pneumoniae, previous assessment; ref Kocaoglu et al. 2015; cited from earlier work
[9] = tested on: penicillin-binding proteins (PBPs); conditions: line of the Δpbp1b mutant strain; 4-fold rule
[10] = strain IU1945, average ± SEM of two experiments
[11] = Δpbp1b mutant strain, average ± SEM
[12] = Δpbp1a mutant strain, average ± SEM

SMILES | IC50 [1, 10] [µM] | IC50 [2, 10] [µM] | IC50 [3, 10] [µM] | IC50 [4, 10] [µM] | IC50 [5, 10] | MIC [6] [µM] | IC50 [7, 10] | IC50 [1, 11] [µM] | IC50 [2, 12] [µM] | IC50 [2, 11] [µM] | IC50 [3, 12] [µM] | IC50 [3, 11] [µM] | IC50 [4, 12] [µM] | IC50 [5, 12] [µM] | IC50 [5, 11] [µM] | IC50 [7, 12] [µM] | IC50 [7, 11] [µM] | PBP selectivity (previous report) [8] | PBP selectivity [9]
CC1(C)S[C@@H]2[C@H](NC(=O)C(C(=O)O)c3ccccc3)C(=O)N2[C@H]1C(=O)O (stereo partly shown) [Carbenicillin, carbenicillin] | 1.11 ± 0.367 | 5.64 ± 4.47 | 2.12 ± 1.15 | 0.859 ± 0.285 | 0.018 ± 0.011 µM | 0.1 (≈ 37.8 ng/mL) | 0.962 ± 0.506 µM |  |  |  |  |  |  |  |  |  |  |  | 
Cc1onc(-c2c(F)cccc2Cl)c1C(=O)N[C@@H]1C(=O)N2[C@@H]1SC(C)(C)[C@@H]2C(=O)O [Flucloxacillin, flucloxacillin] | 12.4 ± 4.2 | 35.3 ± 26 | 18.5 ± 11.1 | 17.7 ± 4.16 | 0.91 µM and 0.911 µM | 1 (≈ 454 ng/mL) | 0.83 µM and 0.832 µM | 11 ± 2.47 | 16 ± 2.01 | 51.5 ± 5.16 | 16.8 ± 9.3 | 33.5 ± 16 | 50.5 ± 2.03 | 0.783 ± 0.581 | 1.95 ± 0.884 | 0.889 ± 0.389 | 2.01 ± 0.878 |  | 
COCC1=C(C(=O)O)N2C(=O)[C@@H](NC(=O)/C(=N\OC)c3csc(N)n3)[C@H]2SC1 [Cefpodoxime, cefpodoxime] | 1.92 ± 0.581 | 0.341 ± 0.125 | 0.522 ± 0.231 | 0.907 ± 0.406 | 0.032 ± 0.005 µM | 0.01 (≈ 4.27 ng/mL) | 0.041 ± 0.015 µM | 2.78 ± 0.886 | 0.621 ± 0.161 | 0.179 ± 0.081 | > 1000 | > 1000 | 0.301 ± 0.071 | 0.032 ± 0.004 | 0.018 ± 0.004 |  | 0.035 ± 0.018 |  | 
N[C@@H](C(=O)N[C@@H]1C(=O)N2C(C(=O)O)=C(Cl)CS[C@H]12)c1ccccc1 [Cefaclor, cefaclor] | 3.6 ± 1.33 |  | 55.4 ± 26.3 | 8.59 ± 3.63 | 0.034 ± 0.009 µM | 10 (≈ 3680 ng/mL) | 3.67 ± 2.52 µM |  |  |  |  |  |  |  |  |  |  |  | 
C[C@@H](O)[C@H]1C(=O)N2C(C(=O)[O-])=C(SC3Cn4cnc[n+]4C3)[C@H](C)[C@H]12 (stereo partly shown) [Biapenem, biapenem] | 0.06 ± 0.021 | 0.146 | 0.111 ± 0.106 | 6.82 ± 4.15 | 0.006 ± 0.001 µM | 0.01 (≈ 3.5 ng/mL) |  |  |  |  |  |  |  |  |  |  |  |  | 
CO/N=C(\C(=O)N[C@@H]1C(=O)N2C(C(=O)[O-])=C(C[N+]3(C)CCCC3)CS[C@H]12)c1csc(N)n1 [Cefepime, cefepime] |  |  |  |  |  | 0.01 (≈ 4.81 ng/mL) |  |  |  |  |  |  |  |  |  |  |  |  | 
C[C@@H](O)[C@H]1C(=O)N2C(C(=O)O)=C(S[C@@H]3CN[C@H](C(=O)N(C)C)C3)[C@H](C)[C@H]12 [Meropenem, meropenem] |  |  |  |  |  |  |  |  |  |  |  |  |  |  |  |  |  | co-selectivity towards PBP3 along with PBP1a, but these molecules were additionally co-selective for PBP2x | 
CC1(C)S[C@@H]2[C@H](NC(=O)[C@H](C(=O)O)c3ccsc3)C(=O)N2[C@H]1C(=O)O [Ticarcillin, ticarcillin] | 0.827 ± 0.365 | 7.74 ± 2.6 | 3.34 ± 1.48 | 1.01 ± 0.331 | 0.146 ± 0.087 µM |  | 0.251 ± 0.109 µM |  |  |  |  |  |  |  |  |  |  |  | 
C[C@@H](O)[C@H]1C(=O)N2C(C(=O)O)=C(SCCN=CN)C[C@H]12 [Imipenem, imipenem] | 0.027 ± 0.005 | 0.062 ± 0.021 | 0.052 ± 0.011 | 0.052 ± 0.022 | 0.007 ± 0.001 µM | 0.1 (≈ 29.9 ng/mL) | 0.048 ± 0.013 µM |  |  |  |  |  |  |  |  |  |  |  | 
C=CC1=C(C(=O)O)N2C(=O)[C@@H](NC(=O)/C(=N\OCC(=O)O)c3csc(N)n3)[C@H]2SC1 [Cefixime, cefixime] | 32.3 ± 34.4 | 4.85 ± 2.06 | > 1000 | 8.96 ± 4.6 | 0.026 ± 0.007 µM | 0.1 (≈ 45.3 ng/mL) | 0.336 ± 0.224 µM |  |  |  |  |  |  |  |  |  |  |  | 
Cc1onc(-c2c(Cl)cccc2Cl)c1C(=O)N[C@@H]1C(=O)N2[C@@H]1SC(C)(C)[C@@H]2C(=O)O [Dicloxacillin, dicloxacillin] | 0.385 ± 0.261 | 4.84 ± 4.74 | 8.7 | 1.14 ± 1.37 | 0.065 ± 0.051 µM | 0.01 (≈ 4.7 ng/mL) | 0.042 ± 0.055 µM |  |  |  |  |  |  |  |  |  |  |  | 
Cc1onc(-c2ccccc2Cl)c1C(=O)N[C@@H]1C(=O)N2[C@@H]1SC(C)(C)[C@@H]2C(=O)O [Cloxacillin, cloxacillin] | 0.561 ± 0.219 | 4.47 ± 2.24 | 2.36 ± 1.77 | 0.977 ± 0.372 | 0.102 ± 0.092 µM |  | 0.119 ± 0.062 µM |  |  |  |  |  |  |  |  |  |  |  | 
CC1(C)S[C@@H]2[C@H](NC(=O)[C@H](NC(=O)N3CCNC3=O)c3ccccc3)C(=O)N2[C@H]1C(=O)O [Azlocillin, azlocillin] | 1.53 ± 0.532 | 1.4 ± 0.693 | 0.294 ± 0.131 | 0.963 ± 0.477 | 0.065 ± 0.013 µM |  | 0.081 ± 0.018 µM |  |  |  |  |  |  |  |  |  |  |  | 
C[C@@H](O)[C@H]1C(=O)N2C(C(=O)O)=C(S[C@@H]3CN[C@H](CNS(N)(=O)=O)C3)[C@H](C)[C@H]12 [Doripenem, doripenem] |  |  |  |  |  |  |  |  |  |  |  |  |  |  |  |  |  | co-selectivity towards PBP3 along with PBP1a, but these molecules were additionally co-selective for PBP2x | 
CCOc1ccc2ccccc2c1C(=O)N[C@@H]1C(=O)N2[C@@H]1SC(C)(C)[C@@H]2C(=O)O [Nafcillin, nafcillin] | 94.5 ± 88.6 | 4.54 ± 1.75 | 1.27 ± 0.306 | 32.4 ± 3.78 | 0.125 ± 0.061 µM | 0.01 (≈ 4.14 ng/mL) | 0.014 ± 0.006 µM |  |  |  |  |  |  |  |  |  |  |  | 
CO[C@@]1(NC(=O)C2SC(=C(C(N)=O)C(=O)O)S2)C(=O)N2C(C(=O)O)=C(CSc3nnnn3C)CS[C@@H]21 (stereo partly shown) [Cefotetan, cefotetan] | 14.6 ± 6.7 | 54.3 ± 21.5 |  | 0.538 ± 0.201 | 0.069 ± 0.015 µM | 1 (≈ 576 ng/mL) | 14.4 ± 5.77 µM |  |  |  |  |  |  |  |  |  |  |  | 
CO/N=C(\C(=O)N[C@@H]1C(=O)N2C(C(=O)[O-])=C(C[n+]3cccc4c3CCC4)CS[C@H]12)c1csc(N)n1 [Cefpirome, cefpirome] | 0.051 ± 0.011 | 0.016 ± 0.004 | 5.53 ± 2.99 | 0.024 ± 0.008 |  | 0.01 (≈ 5.15 ng/mL) | 0.002 ± 0.001 µM |  |  |  |  |  |  |  |  |  |  |  | 
C[C@@H](O)[C@H]1C(=O)N2C(C(=O)O)=C(S[C@@H]3CN[C@H](C(=O)Nc4cccc(C(=O)O)c4)C3)[C@H](C)[C@H]12 [Ertapenem, ertapenem] | 0.118 ± 0.064 | 26.8 ± 4.08 | 13.8 ± 3.49 | 0.137 ± 0.375 | 0.061 ± 0.043 µM | 0.01 (≈ 4.76 ng/mL) | 0.752 ± 0.817 µM | 0.038 ± 0.012 |  | 6.69 ± 0.401 | 3.86 ± 7.4 | > 1000 | 0.326 ± 0.082 | 0.012 ± 0.006 | 0.031 ± 0.011 | 0.341 ± 0.251 | 0.729 ± 0.122 |  | co-selectivity towards PBP3 and PBP1a and 3, la
